In data set [1] the test system is Sprague Dawley Rats Maintained on a High Cholesterol Atherogenic Diet. Kind of data set: Oral treatment of hypercholesterolemia in Sprague Dawley rats on a high cholesterol atherogenic diet. It is filed as in vivo, rat. Particulars: 10 mg/kg once daily by oral gavage in sesame oil, five days, p≦0.01. As to the method: Six week-old male Sprague Dawley rats (HSD, Harlan) were housed in a fixed 12-12- hr artificial light-dark cycle, and maintained on a high cholesterol, atherogenic diet ad libitum (#C13002, Research Diets, NJ).
Animals were maintained on this diet throughout the course of the study.
Following six days of maintenance on the high cholesterol diet, the animals were bled from the tail vein (100-200 μL of whole blood) and serum levels of total cholesterol were measured in duplicate (Infinity Cholesterol Kit; Sigma, St. Louis, Mo.). Based on these initial measures, animals were sorted into groups with approximately the same average serum cholesterol levels. Once sorted, the animals were housed three per cage and maintained on the high cholesterol diet ad libitum.
Treatment groups(n=6/group):
1) Lean Sprague Dawley control (sesame oil)
2) High cholesterol fed control (sesame oil)
3) Compound 1 in sesame oil (10 mg/kg; once daily)
Drug is prepared by mixing Compound 1 in sesame oil, and administered to animals in a volume of 3 ml/kg/dose. Drug is administered by oral gavage daily for five consecutive days.
To monitor the effect of Compound 1, animals were bled from the tail vein five days after commencement of oral treatment. Serum cholesterols were measured in duplicate. […]

Data set [2] deals with Obese, Glucose Intolerant Zucker Fatty Rats (fa/fa). In words: Glucose tolerance test in obese, glucose intolerant Zucker Fatty Rats (fa/fa) after oral treatment. Type of data set: in vivo, rat. Particulars: 10 mg/kg once daily by oral gavage in sesame oil, 1 week; 2 g/kg oral glucose after 12 hr fast, serum glucose at 0.5, 1, 2 hours; p<0.05 and p<0.01; FIG. 3. How it is done:
Ten week-old male Zucker Fatty Rats (fa/fa; Harlan) were housed in a fixed 12-12- hr artificial light-dark cycle, and maintained on a standard diet provided ad libitum. Animals were allowed two days to acclimate in this experimental environment prior to the initiation of the study.
Prior to initiation of treatment, the animals were bled from the tail vein (100-200 μL of whole blood) and serum levels of triglycerides were measured in duplicate (Infinity kits; Sigma, St. Louis, Mo.). Based on these initial measures, animals were sorted into groups with approximately the same average serum triglyceride levels. Once sorted, the animals were housed one per cage and provided standard rodent diet ad libitum.
Treatment groups (n=5/group):
2) Compound 1 in sesame oil (10 mg/kg once daily)
Drug is prepared by mixing Compound 1 in sesame oil, and administered to animals in a volume of 3 ml/kg/dose. Drug is administered by oral gavage once daily.
To monitor the effect of Compound 1, animals were tested in a glucose tolerance test. One day prior to the tolerance test, the animals were fasted overnight (12 hr fast). Animals were then bled at 0 hours to establish baseline glucose levels. […] The animals were then bled 0.5, 1, and 2 hours later and serum glucose levels were measured in duplicate. […]

Entries after “also recorded” stand apart in the source; their conditions may differ.

Molecule `COc1ccc(/C=N/O)cc1-c1cc2c(cc1C)C(C)(C)CCC2(C)C` [Compound 1, 3-(3,5,5,8,8-Pentamethyl-5,6,7,8-tetrahydro-2-naphthyl)-4-methoxybenzaldehyde oxime] gave a melting point of 152 °C. For the same molecule, the total serum cholesterol result in data set [1] (compared to control animals on the same atherogenic diet, FIG. 1) is recorded as “significantly reduced”. In addition, the LDL cholesterol levels result in data set [1] (compared to controls, FIG. 2) was “reduced”. Also, the “glucose clearance rate (glucose tolerance test)” value in data set [2] is on record as “improvement of glucose tolerance; also recorded: significant increase”.

Usually melting point stands for the temperature of the solid-liquid transition.

The record behind these values is patent US20030083357A1, “Oxime derivatives for the treatment of dyslipidemia and hypercholesteremia” (priority 2001, published 2003).
